Results published in US8211922B2, “1-methylnicotinamide derivatives and formulations for treatment of lipoprotein abnormalities” (Cortria Corporation, priority 2005, dated 2012).
Several values for one entry are separate records, joined by “and”; a condition that tells them apart may be missing. Equal values may be shown once.

Legend:
[1] = test system: dyslipidemic and cardiologic patients; experiment: Anti-atherogenic effect of MNA after short-term use (2 weeks), plasma lipids in patients; type: in vivo, human; details: for HDL change: after 2 weeks therapy
Description: The anti-atherogenic effect of MNA was investigated in […] dyslipidemic and cardiologic patients. The enrollment criteria was: high level of TG (˜250 mg/dl) and/or high level of total cholesterol (TC) (≧200 mg/dl). The mean age of the patients was 57.5 (range 37-81 years). The enrolled patients were divided into two groups: dyslipidemic patients (4 patients) and dyslipidemic patients after acute coronary failure (myocardial infarction) (12 patients). The patients were treated with MNA for 2 weeks. The MNA was administered orally, three times a day, one capsule (30 mg MNA) after meal. The 16 patients have finished clinical examination.
The plasma levels of TC, TG, and HDL were measured at baseline and after 2 weeks of therapy. The level of LDL was measured in those cases where it was possible (due to high TG level).
Patient nos. 1-4 were dyslipidemic. Patient nos. 5-16 were dyslipidemic patients after acute coronary failure (myocardial infarction).

[2] = Binding to Sepharose immobilized heparin; details: as a cationic molecule
dyslipidemic patients = experiment: Anti-atherogenic effect of MNA after long term use (13 months), plasma lipids in patients; type: in vivo, human; details: for HDL % / TG % / TG/HDL % / Total Cholesterol % / LDL %: change vs time 0
Description: The anti-atherogenic effect of MNA was investigated in 2 dyslipidemic patients. The enrollment criteria was: high level of TG (≧250 mg/dl) and/or high level of TC (≧200 mg/dl). The patients were treated with MNA for 13 months. The MNA was administered orally, two times a day (50 mg MNA) after meal.
The plasma levels of TC, TG, and HDL were measured at baseline and during the therapy. The level of LDL was measured in those cases where it was possible (due to high TG level).

[3] = test system: patients on permanent therapy with simvastatin; experiment: Safety of co-administration of MNA with statins; type: in vivo, human
Description: A group of 10 patients (4 females and 6 males, ages 38-79) on permanent therapy with simvastatin (10-20 mg/day) were selected for the study. In addition to simvastatin each patient received MNA in daily dose of 90 mg/day for six weeks. The clinical chemistry parameters were monitored during three doctor's visits: two weeks before, just before and after six weeks of MNA administration.

[4] = test system: patients on permanent therapy with simvastatin or atorvastatin; experiment: Long term MNA use in patients on permanent therapy with statins, lipoprotein levels; type: in vivo, human
Description: A group of 8 patients (5 females and 3 males, ages 59-85) on permanent therapy with simvastatin or atorvastatin (10-20 mg/day) were selected for the study. MNA in a daily dose of 90-180 mg was co-administrated for a period of 3 to 42 months. The liporotein levels for each patient were monitored in every 1 to 3 months. […] The changes varied from patient to patient within a limit −5% to −42%. The appropriate changes in LDL were within −12% to +17% and in HDL within −6% to +37%.

various cell lines = experiment: Cytoprotection of cell lines; type: cell-based
[5] = 30 mg MNA orally three times a day, after 2 weeks, individual patients
[6] = 30 mg MNA orally three times a day, after 2 weeks, individual patients nos. 1-16
[7] = change visit 2 vs visit 1, 30 mg MNA orally three times a day, 2 weeks, individual patients nos. 1-16
[8] = change visit 2 vs visit 1, 2 weeks, individual patients
[9] = mean of 16 patients, 30 mg MNA orally three times a day, after 2 weeks
[10] = mean of 16 patients, after 2 weeks
[11] = mean of 16 patients, change visit 2 vs visit 1, 2 weeks
[12] = 2 dyslipidemic patients, 50 mg MNA orally two times a day, 13 months
[13] = MNA 90 mg/day for six weeks co-administered with simvastatin (10-20 mg/day), 10 patients

1-methylnicotinamide chloride [MNA]
Glucose visit 2 [1, 5]: 152 mg/dl and 81 mg/dl and 89 mg/dl (2×) and 90 mg/dl and 101 mg/dl and 129 mg/dl and 96 mg/dl (2×) and 82 mg/dl and 113 mg/dl and 128 mg/dl and 97 mg/dl and 111 mg/dl | LDL visit 2 [1, 5]: 162 mg/dL and 171 mg/dL and 114 mg/dL and 82 mg/dL and 121 mg/dL and 111 mg/dL and 81 mg/dL and 149 mg/dL and 178 mg/dL and 148 mg/dL | Uric Acid visit 2 [1, 5]: 7.2 mg/dL and 4.4 mg/dL and 8.9 mg/dL and 9.6 mg/dL and 6.6 mg/dL and 5.7 mg/dL and 5.3 mg/dL and 5.31 mg/dL and 5.26 mg/dL and 5.8 mg/dL and 7.33 mg/dL | HDL visit 2 [1, 6]: 40 mg/dl and 41 mg/dl (2×) and 59 mg/dl and 31 mg/dl and 45 mg/dl (3×) and 46 mg/dl and 37 mg/dl and 36 mg/dl and 29 mg/dl and 38 mg/dl and 67 mg/dl and 72 mg/dl and 42 mg/dl | Total Cholesterol visit 2 [1, 6]: 251 mg/dL and 260 mg/dL and 208 mg/dL and 155 mg/dL and 130 mg/dL and 203 mg/dL and 194 mg/dL and 159 mg/dL and 253 mg/dL and 271 mg/dL and 229 mg/dL and 146 mg/dL and 280 mg/dL and 188 mg/dL and 243 mg/dL and 231 mg/dL | TG/HDL ratio ([1]; after 2 weeks therapy (baseline 9.60)): 5.25 | HDL change ([1]; group of dyslipidemic patients): substantial increase | HDL change ([1]; group of dyslipidemic patients after acute coronary failure (myocardial infarction)): not observed | LDL % ([1]; change visit 2 vs visit 1, 30 mg MNA orally three times a day, 2 weeks, individual patients): 18.25% and 23.91% and 107.27% and −40.58% and 0.83% and −23.97% and −35.71% and 14.62% and 78.00% and 12.98% | HDL % [1, 7]: 11.11% and 7.89% and −1.67% and −8.82% and −25.45% and −18.18% and −8.00% and −15.91% and −14.29% (2×) and 9.76% and 0.00% and −22.45% and 31.37% and 36.36% and 71.43% | Total Cholesterol % [1, 7]: 5.91% and −5.11% and 8.33% and −38.74% and −43.97% and −17.14% and −24.51% and −31.17% and −4.17% and −12.58% and 3.62% and −39.67% and −6.98% and 2.73% and −17.06% and −4.94% | Glucose % [1, 8]: −8.98% and 2.53% and 7.23% and −25.62% and 5.21% and 17.27% and −19.33% and 0.00% and 9.09% and 18.95% and 8.54% and −10.49% and −1.02% and 4.72% | Uric Acid % [1, 8]: −16.28% and 2.33% and −38.62% and 37.14% and 6.45% and 0.00% and −23.19% and 0.95% and −2.59% and −1.69% and 21.96% | TG/HDL % ([1]; change visit 2 vs visit 1, 2 weeks, individual patients nos. 1-16): −32.29% and −54.61% and −54.01% and −43.95% and −41.63% and −36.79% and −33.19% and −19.29% and −14.21% and −60.02% and −15.08% and −68.96% and −26.10% and −59.00% and −84.18% and −3.72% | TG visit 2, Mean Value [1, 9]: 216 mg/dL and 216.31 mg/dL | Total Cholesterol visit 2, Mean Value [1, 9]: 212 mg/dL and 212.56 mg/dL | HDL visit 2, Mean Value [1, 10]: 44.63 mg/dL | TG/HDL visit 2, Mean Value [1, 10]: 5.25 | HDL %, Mean Value [1, 11]: 0.85% | TG %, Mean Value [1, 11]: −47.2% and −47.18% | TG/HDL %, Mean Value [1, 11]: −45.32% | Total Cholesterol %, Mean Value [1, 11]: −14.50% | LDL visit 2, Mean Value ([1]; mean of patients with LDL measured, after 2 weeks): 131.70 mg/dL | LDL %, Mean Value ([1]; mean of patients with LDL measured, change visit 2 vs visit 1, 2 weeks): 7.86% | Binding to Sepharose immobilized heparin [2]: bound | TC level (dyslipidemic patients; [12]): reduced significantly | TG level (dyslipidemic patients; [12]): reduced significantly | HDL levels (dyslipidemic patients; 2 dyslipidemic patients, after only a few months of therapy): increase | TG/HDL ratio (dyslipidemic patients; 2 dyslipidemic patients, long term use): reduction | TG (dyslipidemic patients; Patient 1, 50 mg MNA orally two times a day, 1.5 months): 218 mg/dL | TG (dyslipidemic patients; Patient 1, 50 mg MNA orally two times a day, 6 months): 255 mg/dL | TG (dyslipidemic patients; Patient 1, 50 mg MNA orally two times a day, 12 months): 315 mg/dL | HDL (dyslipidemic patients; Patient 1, 1.5 months): 28.0 mg/dL | LDL (dyslipidemic patients; Patient 1, 1.5 months): 81.4 mg/dL | TG/HDL (dyslipidemic patients; Patient 1, 1.5 months): 7.79 | Total Cholesterol (dyslipidemic patients; Patient 1, 1.5 months): 153 mg/dL | HDL (dyslipidemic patients; Patient 1, 6 months): 38.6 mg/dL | LDL (dyslipidemic patients; Patient 1, 6 months): 87.0 mg/dL | TG/HDL (dyslipidemic patients; Patient 1, 6 months): 6.61 | Total Cholesterol (dyslipidemic patients; Patient 1, 6 months): 177 mg/dL | HDL (dyslipidemic patients; Patient 1, 12 months): 48.1 mg/dL | LDL (dyslipidemic patients; Patient 1, 12 months): 118.0 mg/dL | TG/HDL (dyslipidemic patients; Patient 1, 12 months): 6.55 | Total Cholesterol (dyslipidemic patients; Patient 1, 12 months): 229 mg/dL | HDL % (dyslipidemic patients; Patient 1, 1.5 months): −8.79% | TG % (dyslipidemic patients; Patient 1, 1.5 months): −77.39% | TG/HDL % (dyslipidemic patients; Patient 1, 1.5 months): −75.21% | Total Cholesterol % (dyslipidemic patients; Patient 1, 1.5 months): −48.66% | HDL % (dyslipidemic patients; Patient 1, 6 months): 25.73% | TG % (dyslipidemic patients; Patient 1, 6 months): −73.55% | TG/HDL % (dyslipidemic patients; Patient 1, 6 months): −78.96% | Total Cholesterol % (dyslipidemic patients; Patient 1, 6 months): −40.60% | HDL % (dyslipidemic patients; Patient 1, 12 months): 56.68% | TG % (dyslipidemic patients; Patient 1, 12 months): −67.32% | TG/HDL % (dyslipidemic patients; Patient 1, 12 months): −79.14% | Total Cholesterol % (dyslipidemic patients; Patient 1, 12 months): −23.15% | TG (dyslipidemic patients; Patient 2, 50 mg MNA orally two times a day, 7 months): 269 mg/dL | TG (dyslipidemic patients; Patient 2, 50 mg MNA orally two times a day, 13 months): 160 mg/dL | HDL (dyslipidemic patients; Patient 2, 7 months): 79.0 mg/dL | LDL (dyslipidemic patients; Patient 2, 7 months): 128.0 mg/dL | TG/HDL (dyslipidemic patients; Patient 2, 7 months): 3.41 | Total Cholesterol (dyslipidemic patients; Patient 2, 7 months): 261 mg/dL | HDL (dyslipidemic patients; Patient 2, 13 months): 70.8 mg/dL | LDL (dyslipidemic patients; Patient 2, 13 months): 106.8 mg/dL | TG/HDL (dyslipidemic patients; Patient 2, 13 months): 2.26 | Total Cholesterol (dyslipidemic patients; Patient 2, 13 months): 210 mg/dL | HDL % (dyslipidemic patients; Patient 2, 7 months): 79.55% | LDL % (dyslipidemic patients; Patient 2, 7 months): −53.11% | TG % (dyslipidemic patients; Patient 2, 7 months): −10.93% | TG/HDL % (dyslipidemic patients; Patient 2, 7 months): −50.39% | Total Cholesterol % (dyslipidemic patients; Patient 2, 7 months): −28.49% | HDL % (dyslipidemic patients; Patient 2, 13 months): 60.91% | LDL % (dyslipidemic patients; Patient 2, 13 months): −60.88% | TG % (dyslipidemic patients; Patient 2, 13 months): −47.02% | TG/HDL % (dyslipidemic patients; Patient 2, 13 months): −67.07% | Total Cholesterol % (dyslipidemic patients; Patient 2, 13 months): −42.47% | Clinical chemistry parameters (liver enzymes AST and ALT, creatinine, urea, glucose and homocysteine) [3, 13]: not changed within the measurements accuracy | Negative effects on patient examination [3, 13]: no negative effects were observed | Adverse synergistic effects ([3]; MNA co-administration with statins): does not result in any adverse synergistic effects | HDL ([4]; co-administration with statin, patients with a low starting HDL level (<40 mg/dl)): particularly remarkable increase | Triglyceride (TG) level ([4]; long term co-administration of MNA with simvastatin or atorvastatin, in general): reduction | Negative side effects ([4]; long term co-administration of MNA with statins): Neither patients nor doctors involved with this study have declared any negative side effects | Cytoprotection (various cell lines): cytoprotective
